Assay [1] can be described thus: Cytotoxicity against human MCF10A cells assessed as cell viability after 48 hrs by MTT assay. Format: cell-based. Particulars: MCF-10A.
Assay [2] has as its system MCF7. In words: Induction of senescence in human MCF7 cells assessed as decrease in SKP2 expression at 4 uM after 24 hrs by Western blot analysis. Format: functional, cell-based.
Assay [3] in a line: Cytotoxicity against human MIAPaCa2 cells assessed as cell viability after 48 hrs by MTT assay. Format: functional, cell-based. Conditions: MIA PaCa-2, 48 h. Background: Tetrazolium dyes change colour on reduction, which living cells bring about.
Assay [4] has as its system MCF7. In words: Induction of senescence in human MCF7 cells assessed as increase in p21 expression at 4 uM after 24 hrs by Western blot analysis. Format: functional, cell-based.
In a further assay the test system is MCF7 (Homo sapiens). In words: Induction of senescence in human MCF7 cells assessed as increase in p16 expression at 4 uM after 24 hrs by Western blot analysis. On the technique in general: In western blotting, separated proteins are transferred to a membrane and probed.
Assay [5] deals with HCT-116. In words: Induction of senescence in human HCT116 cells assessed as increase in p16 expression at 4 uM after 24 hrs by Western blot analysis. Format: functional, cell-based.
For assay [6], the system named is MCF7. The assay can be described thus: Cell cycle arrest in human MCF7 cells assessed as accumulation at G2/M phase at 4 uM after 24 hrs using propidium iodide staining by FACS analysis (reference value: 19%). Format: functional. (A flow cytometer gives signals particle by particle.)
A further assay has as its system A549. The assay can be described thus: Cytotoxicity against human A549 cells assessed as cell viability after 48 hrs by MTT assay. It is filed as functional, cell-based. Conditions: A549, 48 h.
Assay [7] has as its system MCF7. In words: Induction of senescence in human MCF7 cells assessed as increase in p53 expression at 4 uM after 24 hrs by Western blot analysis. Format: functional, cell-based.
Assay [8] relates to MCF7. In words: Cytotoxicity against human MCF7 cells assessed as cell viability after 48 hrs by MTT assay. It is filed as functional, cell-based. Particulars: MCF7, 48 h.
Assay [9] concerns MDA-MB-231. The assay can be described thus: Induction of senescence in human MDA-MB-231 cells expressing mutant p53 at 4 uM after 24 hrs by Western blot analysis. Format: functional, cell-based.
The subject of assay [10] is MCF7. The assay can be described thus: Cell cycle arrest in human MCF7 cells assessed as accumulation at G1 phase at 4 uM after 24 hrs using propidium iodide staining by FACS analysis (reference value: 70%). Format: functional.
Assay [11] has as its system MDA-MB-231. The assay can be described thus: Cytotoxicity against human MDA-MB-231 cells assessed as cell viability after 48 hrs by MTT assay. It is filed as functional, cell-based. Conditions: MDA-MB-231, 48 h.
For another assay, the system named is COLO 205. The assay can be described thus: Cytotoxicity against human COLO205 cells assessed as cell viability after 48 hrs by MTT assay. Conditions: COLO 205, 48 h. Format: functional, cell-based.
The test system of assay [12] is MCF7. In words: Cell cycle arrest in human MCF7 cells assessed as accumulation at S phase at 4 uM after 24 hrs using propidium iodide staining by FACS analysis (reference value: 11%). Format: functional.
In a further assay the test system is SW116. The assay can be described thus: Induction of senescence in human SW116 cells assessed as increase in p21 expression at 4 uM after 24 hrs by Western blot analysis. It is filed as functional, cell-based.
Assay [13] concerns MCF7. In words: Induction of senescence in human MCF7 cells expressing wild type p53 at 4 uM after 24 hrs by Western blot analysis. Format: functional, cell-based.
In assay [14] the test system is HCT-116. The assay can be described thus: Induction of senescence in human HCT116 cells assessed as increase in p21 expression at 4 uM after 24 hrs by Western blot analysis. It is filed as functional, cell-based.
In assay [15] the test system is MCF7. In words: Induction of senescence in human MCF7 cells assessed as increase in p16 expression at 4 uM after 24 hrs by Western blot analysis. Format: functional, cell-based.
For assay [16], the system named is MCF7. In words: Induction of DNA damage in human MCF7 cells assessed as decrease in TRF2 level measured at 4 uM after 24 hrs by Western blot analysis. Format: functional, cell-based.
Assay [17] deals with Telomerase reverse transcriptase (Homo sapiens) (UniProt O14746). The assay can be described thus: Inhibition of telomerase activity in human MCF7 cells assessed as un-repairable DNA damage at 4 uM after 24 hrs. It is filed as cell-based.
Sequence of Telomerase reverse transcriptase (Homo sapiens) (O14746 whole entry): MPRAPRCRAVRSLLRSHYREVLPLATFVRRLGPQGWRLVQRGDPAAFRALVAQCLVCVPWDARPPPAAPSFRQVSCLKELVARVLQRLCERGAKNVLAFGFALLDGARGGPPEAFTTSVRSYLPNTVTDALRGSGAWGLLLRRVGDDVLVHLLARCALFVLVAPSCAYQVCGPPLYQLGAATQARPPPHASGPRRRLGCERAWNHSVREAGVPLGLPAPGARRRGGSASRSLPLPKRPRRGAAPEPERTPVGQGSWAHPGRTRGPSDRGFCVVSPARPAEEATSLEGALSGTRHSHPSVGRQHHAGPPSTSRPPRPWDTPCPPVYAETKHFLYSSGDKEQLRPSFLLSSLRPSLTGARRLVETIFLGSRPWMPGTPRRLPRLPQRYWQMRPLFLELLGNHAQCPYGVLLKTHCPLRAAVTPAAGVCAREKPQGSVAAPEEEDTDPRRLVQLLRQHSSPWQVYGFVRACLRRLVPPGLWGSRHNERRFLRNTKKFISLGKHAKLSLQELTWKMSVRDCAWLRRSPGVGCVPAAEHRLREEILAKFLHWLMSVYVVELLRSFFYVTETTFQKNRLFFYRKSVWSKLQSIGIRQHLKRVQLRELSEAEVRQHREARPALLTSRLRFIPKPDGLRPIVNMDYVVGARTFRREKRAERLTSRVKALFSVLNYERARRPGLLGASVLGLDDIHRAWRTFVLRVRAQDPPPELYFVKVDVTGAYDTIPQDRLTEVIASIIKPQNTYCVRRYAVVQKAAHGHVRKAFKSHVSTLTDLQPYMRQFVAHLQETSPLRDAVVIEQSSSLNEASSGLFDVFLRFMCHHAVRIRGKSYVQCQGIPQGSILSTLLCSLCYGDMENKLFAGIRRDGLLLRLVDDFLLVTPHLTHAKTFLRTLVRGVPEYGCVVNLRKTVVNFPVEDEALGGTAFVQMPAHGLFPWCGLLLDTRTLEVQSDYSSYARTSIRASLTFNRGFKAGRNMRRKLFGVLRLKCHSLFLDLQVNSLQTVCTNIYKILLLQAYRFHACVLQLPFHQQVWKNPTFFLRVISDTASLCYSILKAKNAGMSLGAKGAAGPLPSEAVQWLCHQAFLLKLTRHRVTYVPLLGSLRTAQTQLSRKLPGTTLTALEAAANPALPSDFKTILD
Assay [18] concerns MCF7. In words: Cytotoxicity against human MCF7 cells assessed as cell viability at 4 uM after 48 hrs by MTT assay. It is filed as functional.
Assay [19] deals with MCF7. In words: Induction of DNA damage in human MCF7 cells assessed as increase in TRF1 level measured at 4 uM after 24 hrs by Western blot analysis. It is filed as functional, cell-based.
The test system of assay [20] is MCF7. The assay can be described thus: Induction of DNA damage in human MCF7 cells assessed as increase in gamma H2AX level measured at 4 uM after 24 hrs by Western blot analysis. Format: functional, cell-based.
The subject of assay [21] is MCF7. In words: Induction of DNA damage in human MCF7 cells assessed as increase in POT1 level measured at 4 uM after 24 hrs by Western blot analysis. Format: functional, cell-based.
The subject of assay [22] is MCF7. In words: Cytotoxicity against human MCF7 cells assessed as cell viability at 2 uM after 48 hrs by MTT assay. It is filed as functional.
The subject of assay [23] is MCF7. In words: Induction of senescence in human MCF7 cells assessed as blue colotation and adopted a flattened morphology with spread out cytoplasm at 4 uM after 72 hrs by SA-beta-gal assay. Format: functional, cell-based.
The target in assay [24] is Telomerase reverse transcriptase (Homo sapiens) (UniProt O14746). In words: Inhibition of telomerase activity in human A549 cells at 4 uM after 24 hrs by TRAP eze XL telomerase assay.

Molecules are shown by their SMILES. Activity calls are given as the source filed them. No cut-off for these calls is given here.

From ChEMBL document CHEMBL3217459, “3-Diarylethyne quinazolinones: a new class of senescence inducers” (Medchemcomm, 2013) come the findings set out here.

For orientation: IC50 means the concentration that gives 50% inhibition. For `COc1cccc2c1C(=O)c1c(O)c3c(c(O)c1C2=O)C[C@@](O)(C(=O)CO)C[C@@H]3O[C@H]1C[C@H](N)[C@H](O)[C@H](C)O1` [DOXORUBICIN], the IC50 in assay [1] was found to be 31 µM; in [3], 0.14 µM; in the assay on A549, 0.73 µM; in the assay on MCF7 [8], 0.1 µM; in the assay with MDA-MB-231 [11] it was 0.16 µM; in the assay on COLO 205 it was 0.37 µM. Moreover, in the assay on MCF7 [2], the inhibition result was “Active”. Besides, the outcome with MCF7 [4], with MCF7 (Homo sapiens), in the assay on HCT-116 [5], with MCF7 [7], in the assay with SW116 and in the assay on MCF7 [13] was Active. In addition, the outcome in the assay on HCT-116 [14] and in the assay with MCF7 [15] was Active. Further, the Activity in the assay with MCF7 [6] is listed as 16%; in the assay with MCF7 [10], 82%; with MCF7 [12], 2%. In addition, the result with MDA-MB-231 [9] was inactive.
For the compound `COc1cc(/C=C/c2nc3ccccc3c(=O)n2-c2ccc(C#Cc3ccccc3)cc2C)cc(OC)c1OC`, the inhibition result (with MCF7 [16]; in the assay with MCF7 [2]; in [17]) was “Active” each time. Further, the IC50 in [1] came out at 8 µM; in assay [3] it was 6.01 µM; with A549, 6.54 µM; in the assay with MCF7 [8], 2.46 µM; in the assay on MDA-MB-231 [11], 5.56 µM; with COLO 205, 6.24 µM. The result in the assay with MCF7 [4], in the assay on MCF7 (Homo sapiens), in the assay with HCT-116 [5], with MCF7 [19], in the assay with MCF7 [7] and in the assay with MCF7 [20] was Active. Besides, the outcome in the assay with MCF7 [21], in the assay with SW116, in the assay on HCT-116 [14] and in the assay with MCF7 [15] was Active. The Activity with MCF7 [6] is given as 5%; with MCF7 [10], 90%; in the assay on MCF7 [12], 5%. Moreover, the figures for the OD with MCF7 [18] and in the assay with MCF7 [22] were 0.27 and 0.47, respectively.
Take `Cc1cc(C#Cc2ccc(C(C)(C)C)cc2)ccc1-n1c(/C=C/c2ccnc3ccccc23)nc2ccccc2c1=O`: the outcome with MCF7 [23], with MCF7 [4], in the assay with MCF7 (Homo sapiens), with HCT-116 [5], in the assay on MCF7 [19] and in the assay with MCF7 [7] was Active. In addition, the outcome in the assay with MCF7 [20], with MCF7 [21], with SW116, in the assay with MCF7 [13], with HCT-116 [14] and in the assay with MCF7 [15] was Active. Moreover, the inhibition entry (in assay [24]; with MCF7 [16]; with MCF7 [2]; in assay [17]) was “Active” each time. Moreover, the IC50 in assay [1] worked out at 28 µM; in [3] it was 5.21 µM; in the assay on A549, 5.87 µM; in the assay with MCF7 [8], 2.45 µM; in the assay with MDA-MB-231 [11], 5.44 µM; with COLO 205 it was 5.44 µM. In addition, the Activity with MCF7 [6] was 4%; in the assay with MCF7 [10], 94%; with MCF7 [12], 2%. Moreover, the figures for the OD in the assay on MCF7 [18] and in the assay with MCF7 [22] were 0.24 and 0.59, respectively. Further, the outcome with MDA-MB-231 [9] was inactive.
